Measurements: PubChem BioAssay (NCI)
Values joined by “and” are separate entries in the source; they are usually repeats but may differ in a detail not shown here. Equal values may be shown once.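 Dose response: 5 concentrations. Exposure: 48 h. Format: 96-well plates. Endpoint: linear interpolation; highest concentration if not reached. Here, GI50 denotes the concentration required for 50% inhibition of growth. At the TGI there is no net growth.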

Tests used:
Test in all cases: NCI tumour cell line growth inhibition, 48 h
COLO 205 colon = tested on: COLO 205 colon
SNB-75 CNS = tested on: SNB-75 CNS
BT-549 breast = tested on: BT-549 breast
NCI-H226 lung = tested on: NCI-H226 lung
DU-145 prostate = tested on: DU-145 prostate
HCT-15 colon = tested on: HCT-15 colon
KM12 colon = tested on: KM12 colon
LOX IMVI melanoma = tested on: LOX IMVI melanoma
HOP-92 NSCLC = tested on: HOP-92 NSCLC
HL-60(TB) leukemia = tested on: HL-60(TB) leukemia

Compound	GI50 (COLO 205 colon)	TGI (COLO 205 colon)	GI50 (SNB-75 CNS)	TGI (SNB-75 CNS)	GI50 (BT-549 breast)	TGI (BT-549 breast) [µM]	GI50 (NCI-H226 lung)	TGI (NCI-H226 lung)	GI50 (DU-145 prostate)	TGI (DU-145 prostate) [µM]	GI50 (HCT-15 colon)	TGI (HCT-15 colon)	GI50 (KM12 colon)	TGI (KM12 colon)	GI50 (LOX IMVI melanoma)	TGI (LOX IMVI melanoma)	GI50 (HOP-92 NSCLC)	TGI (HOP-92 NSCLC)	GI50 (HL-60(TB) leukemia)	TGI (HL-60(TB) leukemia)
CC(=O)OC12C=C(C)C(C(C)C1)C1C(=O)N(CCN3CCOCC3)C(=O)C12 (stereo unspecified)	> 100 µM	> 100 µM	> 100 µM	> 100 µM	> 100 µM	> 100	> 100 µM	> 100 µM	> 100 µM	> 100	> 100 µM	> 100 µM	> 100 µM	> 100 µM	> 100 µM	> 100 µM	> 100 µM	> 100 µM	> 100 µM	> 100 µM
O=S(=O)(c1ccc(Cl)cc1)C(Cl)(Cl)Cl	3.38 µM	> 53.4 µM	2.34 µM	20.3 µM	1.4 µM	7.48	4.86 µM	21.9 µM	2.09 µM	10	1.19 µM	> 100 µM	3.27 µM	13.9 µM	1.77 µM	6.58 µM	1.71 µM	23.2 µM	1.8 µM	7.7 µM
CCCN(CCS(C)(=O)=O)Cc1ccc(-c2ccc3ncnc(Nc4ccc(OCc5cccc(F)c5)c(Cl)c4)c3c2)o1	> 25 µM	> 25 µM	> 25 µM	> 25 µM	> 25 µM	> 25	> 25 µM	> 25 µM	> 22.4 µM	> 25	> 25 µM	> 25 µM	> 25 µM	> 25 µM	> 25 µM	> 25 µM	> 25 µM	> 25 µM	8.14 µM	> 25 µM
COc1ccccc1-c1cc(=O)c2cc(C)cnc2[nH]1		52.5 µM				> 100		> 100 µM		> 100		> 100 µM		> 100 µM		> 100 µM		> 100 µM	9.53 µM	76.2 µM
CN1CCN(C(=O)c2cc(-c3ccc4ncnc(N5CCc6cc(F)c(Cl)cc65)c4c3)cnc2N)CC1	0.446 µM	3.5 µM	0.0512 µM	0.704 µM	0.181 µM	1.57	0.309 µM	2.76 µM	0.214 µM	11.3	0.251 µM	2.63 µM	0.312 µM	1.83 µM	0.192 µM	1.44 µM	0.154 µM	1.08 µM	0.0535 µM	0.409 µM
NC(=O)c1csc(C2OC(CO)C(O)C2O)n1 (stereo unspecified)	4.76 µM	> 31.6 µM and 6210 µM	26.5 µM and 40.8 µM	7140 µM	> 60.7 µM	> 10000	99.2 µM	> 9450 µM		> 10000	4.97 µM	1440 µM	70.8 µM	6070 µM	> 53.2 µM	7900 µM		1300 µM	36.5 µM	3330 µM
CC(=O)/C=C/c1cn(C(=O)OC(C)(C)C)c2ccc(Br)cc12	19.5 µM	42.1 µM	14.4 µM	39.3 µM	5.87 µM	26.4	11.7 µM	28.7 µM	14.1 µM	45.1	20.9 µM	> 100 µM	13.8 µM	29.1 µM	10.7 µM	25.2 µM	13.4 µM	35.8 µM	29.6 µM	> 100 µM
O=S(=O)(Nc1cc(Sc2cccc3cccnc23)c(O)c2ccccc12)c1ccc(F)cc1	1.69 µM	3.51 µM	3.68 µM	15.2 µM	3.04 µM	13.7	3.24 µM	19 µM	1.27 µM	3.81	0.461 µM	3.16 µM	2.48 µM	14.2 µM	0.624 µM	2.82 µM	2.02 µM	7.08 µM	2.12 µM	5.88 µM
O=C1/C(=C/c2ccccc2[N+](=O)[O-])Cc2ccccc21	1.3 µM	2.57 µM			1.83 µM	4.49	2.1 µM	9.03 µM	1.86 µM	3.51	1.66 µM	4.71 µM	3.97 µM	15.7 µM	1.88 µM	4.39 µM	1.22 µM	3.36 µM	2.85 µM	7.12 µM
COc1ccc2c(c1)N(CCO)C1=C(C(=O)OC1)C2c1cccc(F)c1 (stereo unspecified)	0.526 µM	3.25 µM	0.186 µM	13.6 µM	0.761 µM	> 14.4	4.16 µM	> 50 µM	1.24 µM	> 38.6	0.233 µM	> 50 µM	0.255 µM	> 50 µM	0.454 µM	> 50 µM	0.525 µM	> 23.3 µM	0.161 µM	0.781 µM
CCc1ccc2c(c1)N(CCO)C1=C(C(=O)OC1)C2c1cccc(Br)c1 (stereo unspecified)	0.358 µM	1.42 µM	0.307 µM	8.3 µM	1.35 µM	19.7	0.988 µM	13.2 µM	0.658 µM	11.3	0.584 µM	15.8 µM	0.336 µM	12.5 µM	0.663 µM	17.2 µM	3.15 µM	21.5 µM	0.317 µM	2.21 µM
C[C@@H]1CN(Cc2ccc(F)cc2)[C@@H](C)CN1C(=O)c1cc2c(C(=O)C(=O)N(C)C)cn(C)c2cc1Cl	7.66 µM	25.4 µM	8.35 µM	27.9 µM	15.2 µM	41.8	12.2 µM	31.1 µM	18.8 µM	53.1	18.3 µM	47.3 µM	17.3 µM	37.4 µM	14.2 µM	28.4 µM	19.4 µM	56.5 µM	23.5 µM	63.2 µM
O=C(/C=C/c1ccccc1)CCN1CCOCC1		20 µM		51.6 µM		17.9		51.6 µM		40.4		24.4 µM		18.6 µM		24.8 µM		38.1 µM		16.4 µM
CN(C)CCCn1c(=O)c2ccccc2c2ccccc21	5.58 µM	20.6 µM	13.9 µM	28.6 µM	29.5 µM	73.9	12.1 µM	38.5 µM	18.5 µM	52	13.8 µM	> 100 µM	15.5 µM	66.7 µM	5.13 µM	44 µM	17.9 µM	67.2 µM	21.8 µM	69.5 µM
NC(CSC1c2ccccc2-c2ccccc21)C(=O)O (stereo unspecified)		> 100 µM		> 100 µM		> 100		> 100 µM		> 100		> 100 µM		> 100 µM		> 100 µM		> 100 µM		> 100 µM
O=C1CCC(N2Cc3cc(CNC(=O)C(F)(F)c4ccc(Cl)cc4)ccc3C2=O)C(=O)N1 (stereo unspecified)	0.721 µM	> 100 µM	0.152 µM	> 100 µM	0.237 µM	> 74.2	1.75 µM	> 100 µM	> 100 µM	> 100	0.511 µM	> 100 µM	67.1 µM	> 100 µM	> 100 µM	> 100 µM	0.0741 µM	> 100 µM	< 0.01 µM	0.03 µM
Nc1nc(OCc2ccccc2)c2[nH]cnc2n1	57 µM and 36.1 µM	288 µM and 151 µM	13.9 µM	67.3 µM and 86.1 µM	24.3 µM and 22.1 µM	115	36.8 µM and 16.3 µM	119 µM and 82 µM	33.6 µM and 30.1 µM	266	25.5 µM and 21.7 µM	400 µM and 222 µM	59.6 µM and 62 µM	400 µM and 307 µM	34 µM and 26.2 µM	273 µM and 115 µM	7.9 µM and 27.2 µM	89.2 µM and 239 µM and 183 µM	39.8 µM and 17.7 µM	181 µM and 57.8 µM
O=C(OCc1ccc2ccccc2n1)c1cn(C2CC2)c2cc(N3CCN(Cc4ccc5ccccc5n4)CC3)c(F)cc2c1=O	49.6 µM	> 100 µM	32 µM	> 66.6 µM	23.1 µM	68	22.1 µM	91.6 µM	6.09 µM	> 100	62.6 µM	> 100 µM	41.6 µM	> 100 µM	29 µM	> 89.5 µM	> 100 µM	> 100 µM	> 100 µM	> 100 µM
O=C1c2ccccc2-c2cc([N+](=O)[O-])c([N+](=O)[O-])cc21		4.71 µM		3.39 µM		3.79		12.6 µM		3.28				3.51 µM		2.12 µM		3.2 µM		3.97 µM
CN1C(=O)N(C)C2C1NN=c1s/c(=C\c3ccc(C(F)(F)F)cc3)c(=O)n12 (stereo unspecified)	0.776 µM	4.72 µM	2.11 µM	18.1 µM	3.66 µM	> 100	27 µM	> 100 µM	2.96 µM	> 100	0.488 µM	> 100 µM	0.705 µM	> 100 µM	0.854 µM	> 100 µM	0.433 µM	57.9 µM	0.413 µM	18.6 µM
CN[C@@H](C)C(=O)N[C@H](C(=O)N1CCC[C@H]1C(=O)Nc1sc(-c2ncco2)nc1-c1ccccc1)C1CCCCC1	18.7 µM	37.9 µM	12.2 µM	65.4 µM	0.0598 µM	33.6	> 100 µM	> 100 µM	> 95.8 µM	> 100	22.6 µM	> 78.7 µM	43.3 µM	> 100 µM	18.5 µM	34.8 µM	3.52 µM	13.4 µM	16.9 µM	39.1 µM
C/C(=C\c1ccc2ccccc2c1)[N+](=O)[O-]	2.07 µM	4.36 µM	1.84 µM	4.21 µM	2.24 µM	4.57	2.41 µM	6.97 µM	1.91 µM	3.54	1.56 µM	3.59 µM	2.11 µM	4.19 µM	1.19 µM	2.8 µM	1.96 µM	5.06 µM	2.03 µM	5.49 µM
OCc1ccc(N2CCCC2c2ccccc2)cc1Cl (stereo unspecified)	3.26 µM	11.8 µM	3.28 µM	29 µM	7.12 µM	18.7	0.126 µM	0.325 µM	12.3 µM	30.8	4.24 µM	20 µM	4.17 µM	19.4 µM	9.67 µM	22.5 µM	2.06 µM	9.28 µM	3.07 µM	11.1 µM
O=C1OCC2=C1C(c1ccccc1)c1cc3c(cc1N2)OCO3 (stereo unspecified)	0.0261 µM	0.0703 µM	0.0201 µM	1.16 µM	0.0441 µM	4.97	0.0245 µM	0.0742 µM	0.0443 µM	> 100	0.0373 µM	> 53.1 µM	< 0.0167 µM		0.042 µM	> 100 µM	0.141 µM	7.63 µM	0.0214 µM	0.0573 µM
COC1C=COC2(C)Oc3c(C)c(O)c4c(c3C2=O)/C(=N/C2CCC(O)OC2C)C=C(NC(=O)/C(C)=C\C(=O)C2CC2C(O)C(C)C(O)C(C)C(OC(C)=O)C1C)C4=O (stereo unspecified)		3.38 µM		12.4 µM		6.28		8.06 µM		7.13		9.79 µM		9.48 µM		3.24 µM		5.29 µM		6.32 µM
O=C1OC(=O)C(=C\c2ccc3c(c2)OCO3)/C1=C/c1ccc2c(c1)OCO2		> 100 µM				> 100		> 100 µM		> 100		> 100 µM		> 100 µM		> 100 µM		> 100 µM		> 88.1 µM
N#CC1(C(N)=O)C(c2ccc(Cl)cc2)CC(=O)CC1c1ccc(Cl)cc1 (stereo unspecified)	15.6 µM	30.4 µM			14.6 µM	27.7	16 µM	31.6 µM	15.6 µM	29	16.8 µM	34.3 µM	19.4 µM	43.9 µM	17 µM	33.3 µM	16.4 µM	32.1 µM	20.2 µM	51.6 µM
